Assay results as given in PMC7887208 (2021).

How the values were obtained:
[1] = system: Pu22T14T23 (DNA, G4) TGAGGGTGGGTAGGGTGGGTAA; test: 1H NMR titration and NOESY; details: 70 mM KCl
[2] = system: d(TTAGGGT)4 (DNA, G4) TTAGGGT; test: 1H NMR titration and NOESY; details: 150 mM KCl; 25 mM K-phosphate pH 6.7, 1 mM EDTA, 25 °C; sites A3-G4 and over G6
[3] = system: d(CGTACG)2 ("CG") (DNA, duplex) CGTACG; test: 1H and 31P NMR titration; details: 0.1 M NaCl; 10 mM sodium phosphate pH 7.0, 15 °C; partial intercalation
[4] = system: d(AAGAATTCTT)2 ("AATT") (DNA, duplex) AAGAATTCTT; test: 1H and 31P NMR titration; details: 0.1 M NaCl; 10 mM sodium phosphate pH 7.0, 15 °C; external interaction, no intercalation
[5] = system: Pu22T14T23 (DNA, G4) TGAGGGTGGGTAGGGTGGGTAA; test: reverse fluorescence titration (DNA titrated with ligand), EQUISPEC fit; details: 70 mM KCl; 25 mM phosphate pH 6.9, 20 °C; 2.4 µM DNA; overall constant of 1:2 model
[6] = system: Pu22T14T23 (DNA, G4) TGAGGGTGGGTAGGGTGGGTAA; test: ligand fluorescence titration, EQUISPEC fit; details: 3 µM ligand, 1:1 model
[7] = system: d(TTAGGGT)4 (DNA, G4) TTAGGGT; test: ligand fluorescence titration, EQUISPEC fit; details: 3 µM ligand, 1:1 model
[8] = 70 mM KCl, 25 mM phosphate pH 6.9, 20 °C

binding [3]	binding [4]	overall Kb [5]	Kb [6, 8]	binding ([6]; PBS (Na+; composition not given), PBS, 20 °C, stated similar to K+ buffer)	Kb [7, 8]	Kb ([7]; PBS (Na+; composition not given), PBS, 20 °C, printed as d(TTAGGG)4)	SMILES	binding ([1]; 25 mM KH2PO4 pH 6.9, 25 °C, no shift change, no NOE)	binding [2]	binding ([1]; 25 mM phosphate pH 6.9, 25 °C, stacks on 5' and 3' end tetrads)
							C[C@]1(c2nc3c(C(N)=O)cccc3[nH]2)CCCN1	no		
weak	weak	10^12.8 M^-2	~ 10^6.1 M^-1	yes	~ 10^6.1 M^-1	~ 10^5.1 M^-1	NC(=O)Cn1ccc2ccc(-c3ccc(CN4CCCC4)cc3)nc21		yes	yes
